Laboratory results from patent US8309574B2, “Nuclear transfer promoter for Rac protein and method of screening the same” (Kowa Company, Ltd., priority 2004, dated 2012).
“Also recorded” adds a separate entry of the source.

Columns and labels:
Rac protein = test: Nuclear transfer of GFP/Rac fusion protein in transformed HUVEC, observed by fluorescence microscopy; type: cell-based; details: HUVEC expressing GFP/Rac fusion protein; pitavastatin 1 μM, 15 hours stationary culture; GFP fluorescence, nuclei stained with Hoechst
Protocol: The present inventors measured the behavior of Rac protein in HUVEC with an HMG-CoA reductase inhibitor, particularly pitavastatin. For this measurement, a gene encoding a Rac/fluorescence protein GFP fusion protein was introduced into HUVEC to prepare a transformed cell expressing a GFP/Rac fusion protein. This transformed cell was cultured, and the state of Rac distributed in the cell in the presence or absence of pitavastatin was examined by observing the fluorescence of GFP. A gene encoding the whole area of a Rac translation region was introduced into a predetermined position of a commercial plasmid pEGFP-C1 for preparation of a fusion protein consisting of GFP and a desired protein, to construct a plasmid comprising the GFP-Rac gene. After HUVECs were put to a 6-well plate and then cultured overnight in EGM-2 medium. Using Fugene 6, the plasmid construct DNA prepared above was added in an amount of 0.8 μg/well to the cells. The cells were further cultured for 21 hours in EGM-2 medium, and then the fluorescence of GFP was observed under a fluorescence microscope. Six hours after the culture of HUVECs to which the plasmid construct DNA had been added was initiated, pitavastatin was added to the cells to a final concentration of 1 μM. And then the cells were subjected to stationary culture for 15 hours, fixed onto a prepared slide and observed under a fluorescence microscope. […]

[1] = system: vascular endothelial cells; details: cited from earlier work

O=C(O)C[C@H](O)C[C@H](O)/C=C/c1c(C2CC2)nc2ccccc2c1-c1ccc(F)cc1 [pitavastatin, (3R,5S,6E)-7-[2-cyclopropyl-4-(4-fluorophenyl)-3-quinolyl]-3,5-dihydroxy-6-heptenoic acid]
state of Rac distributed in the cell (transfer of GFP-Rac into the nucleus) (Rac protein): fluorescence of GFP was localized in a certain area of the cells; also recorded: GFP-Rac is transferred to a nucleus | expression of MCP-1 [1]: suppresses | expression of NO synthase [1]: promotes | expression of PAI-1 [1]: suppresses | expression of PTX3 [1]: suppresses | expression of endothelin [1]: suppresses | expression of inflammatory cytokine IL-8 [1]: suppresses | expression of thrombomodulin [1]: promotes
